According to US10787437B2, “Processes for the preparation of pyrazole derivatives useful as modulators of the 5-HT2A serotonin receptor” (Arena Pharmaceuticals, Inc., priority 2008, dated 2020):

Legend:
normal volunteers = test: Afternoon nap model of insomnia in normal volunteers; type: in vivo, human
Excerpt: APD125, a potent and selective 5-HT2A serotonin receptor inverse agonist is a member of the genus disclosed in the European Patent EP1558582. […] Sleep onset latency was not decreased by APD125. In the afternoon nap model, APD125 decreased microarousals, the number of sleep stage shifts, and number of awakenings after sleep onset.

healthy adults = test: Phase 1 trials, waking EEG; type: in vivo, human
insomnia patients = test: Phase 2 trial, measurements of sleep maintenance versus placebo; type: in vivo, human
Excerpt: The data from the APD125 Phase 2 study are consistent with Phase 1 data and support further development of APD125 for the treatment of insomnia patients who have difficulty maintaining sleep.

diabetic rats = settings: cited from earlier work
[1] = system: DOCA-salt induced hypertension; settings: rats; cited from earlier work
5-HT2A = 5-HT2A (Homo sapiens, UniProt P28223); settings: cited from earlier work
Chain of 5-HT2A (P28223 whole entry, species assumed): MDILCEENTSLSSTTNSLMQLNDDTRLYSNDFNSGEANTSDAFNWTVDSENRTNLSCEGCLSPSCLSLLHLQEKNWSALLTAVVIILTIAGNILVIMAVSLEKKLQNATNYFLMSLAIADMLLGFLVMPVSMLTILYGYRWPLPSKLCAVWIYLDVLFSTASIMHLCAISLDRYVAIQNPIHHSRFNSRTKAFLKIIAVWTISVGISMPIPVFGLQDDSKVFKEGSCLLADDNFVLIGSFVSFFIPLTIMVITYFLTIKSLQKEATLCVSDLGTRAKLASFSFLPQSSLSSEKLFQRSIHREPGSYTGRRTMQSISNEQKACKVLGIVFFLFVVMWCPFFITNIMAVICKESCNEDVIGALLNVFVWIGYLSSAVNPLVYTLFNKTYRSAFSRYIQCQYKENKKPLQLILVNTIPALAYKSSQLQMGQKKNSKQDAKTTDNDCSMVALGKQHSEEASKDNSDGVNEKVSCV

JC virus = settings: cited from earlier work
[2] = system: spontaneously hypertensive rats; settings: cited from earlier work
glaucoma patients = settings: cited from earlier work
heatstroke = settings: in vivo; cited from earlier work
inflammatory pain = settings: rats, intrathecal or intraperitoneal administration; cited from earlier work
thermal induced pain = settings: rats, intraperitoneal administration; cited from earlier work
lumbar disc herniation = settings: humans; cited from earlier work
diabetic nephropathy = settings: 24 months of treatment; cited from earlier work

Structure (SMILES): COc1ccc(NC(=O)Nc2ccc(F)cc2F)cc1-c1c(Br)cnn1C [APD125]
- REM sleep (normal volunteers; afternoon nap model): at the expense of REM sleep
- microarousals (normal volunteers; afternoon nap model): decreased
- number of awakenings after sleep onset (normal volunteers; afternoon nap model): decreased
- number of sleep stage shifts (normal volunteers; afternoon nap model): decreased
- sleep onset latency (normal volunteers; afternoon nap model): not decreased
- slow wave sleep and associated parameters (normal volunteers; primarily during the early part of sleep): increased slow wave sleep and associated parameters in a dose-dependent manner
- dose of maximal vigilance-lowering effects on waking EEG (healthy adults): 40 to 80 mg
- effects on waking EEG (healthy adults): vigilance-lowering effects on waking EEG
- time of peak effects after dosing (healthy adults; after dosing): 2 to 4 h
- next day cognitive effects (insomnia patients; Phase 2): without any limiting next day cognitive effects
- measurements of sleep maintenance (insomnia patients; Phase 2, compared to placebo): statistically significant improvements

Structure (SMILES): O=CN1CCC(C(=O)NCCN2CCC(=C3c4ccccc4C=Cc4ccccc43)CC2)CC1 [AT-1015]
- 14.9% reduction in saphenous sensory conduction velocity (diabetic rats): completely reversed
- 44.7% reduction in sciatic endoneurial blood flow (diabetic rats): completely reversed

Structure (SMILES): CN1CCN2c3ccccc3Cc3ccccc3C2C1 (stereo not drawn) [Mainserin]
- DOCA-salt induced hypertension [1]: prevent

Structure (SMILES): O=C(c1ccc(F)cc1)C1CCN(CCn2c(=O)[nH]c3ccccc3c2=O)CC1 [ketanserin]
- inverse agonist activity at 5-HT2A (5-HT2A): have inverse agonist activity
- JC virus infection of human glial cells (JC virus): inhibited
- blood pressure [2]: stabilize blood pressure
- IOP (glaucoma patients): significantly lower
- protection during heatstroke (heatstroke): protect against circulatory shocks, intracranial hypertension, and cerebral ischemia

Structure (SMILES): Cc1nc2sccn2c(=O)c1CCN1CCC(=C(c2ccc(F)cc2)c2ccc(F)cc2)CC1 [ritanserin]
- inverse agonist activity at 5-HT2A (5-HT2A): have inverse agonist activity
- JC virus infection of human glial cells (JC virus): inhibited
- 14.9% reduction in saphenous sensory conduction velocity (diabetic rats): completely reversed
- 44.7% reduction in sciatic endoneurial blood flow (diabetic rats): completely reversed

Structure (SMILES): COc1cccc(CCc2ccccc2OCC(CN(C)C)OC(=O)CCC(=O)O)c1 (stereo not drawn) [sarpogrelate]
- analgesic effect on inflammatory pain (inflammatory pain): significant analgesic effect
- analgesic effect on thermal induced pain (thermal induced pain): significant analgesic effect
- 14.9% reduction in saphenous sensory conduction velocity (diabetic rats): completely reversed
- 44.7% reduction in sciatic endoneurial blood flow (diabetic rats): completely reversed
- lower back pain, leg pain and numbness associated with sciatica (lumbar disc herniation): effective treatment
- IOP (glaucoma patients): significantly lower
- urinary albumin excretion level (diabetic nephropathy): significantly reduced
